Data reported in the NIST ThermoML archive (doi:10.1021/je4004299).
± gives the expanded uncertainty stated by the source.

Conditions: for surface tension liquid-gas: Pendant drop shape; for mass density: 101.33 kPa, Liquid, Vibrating tube method

surface tension liquid-gas (298.15 K) | mass density (298.15 K) | surface tension liquid-gas (303.15 K) | mass density (303.15 K) | surface tension liquid-gas (313.15 K) | mass density (313.15 K) | surface tension liquid-gas (323.15 K) | mass density (323.15 K) | surface tension liquid-gas (333.15 K) | mass density (333.15 K) | surface tension liquid-gas (343.15 K) | mass density (343.15 K) | Compound
54.5 ± 0.6 mN/m | 1128.47 ± 8 kg/m3 | 53.6 ± 0.6 mN/m | 1125.91 ± 8 kg/m3 | 51.9 ± 0.6 mN/m | 1119.35 ± 8 kg/m3 | 50.5 ± 0.5 mN/m | 1112.78 ± 8 kg/m3 | 48.4 ± 0.5 mN/m | 1107.1 ± 8 kg/m3 | 46.8 ± 0.5 mN/m | 1100.5 ± 8 kg/m3 | CCCCn1cc[n+](C)c1.NCC(=O)[O-] [1-butyl-3-methylimidazolium glycinate]
49.7 ± 0.5 mN/m | 1129.32 ± 8 kg/m3 | 49.2 ± 0.5 mN/m | 1125.95 ± 8 kg/m3 | 48.4 ± 0.5 mN/m | 1118.97 ± 8 kg/m3 | 47.6 ± 0.5 mN/m | 1111.78 ± 8 kg/m3 | 46.8 ± 0.5 mN/m | 1104.3 ± 8 kg/m3 | 46.1 ± 0.5 mN/m | 1097.73 ± 8 kg/m3 | CCCCn1cc[n+](C)c1.O=C([O-])CO [1-butyl-3-methylimidazolium glycolate]
42.7 ± 0.5 mN/m | 1100.2 ± 8 kg/m3 | 42.3 ± 0.5 mN/m | 1096.63 ± 8 kg/m3 | 41.9 ± 0.5 mN/m | 1089.79 ± 8 kg/m3 | 41.3 ± 0.5 mN/m | 1083.17 ± 8 kg/m3 | 40.6 ± 0.5 mN/m | 1076.42 ± 8 kg/m3 | 40 ± 0.5 mN/m | 1069.75 ± 8 kg/m3 | CC(O)C(=O)[O-].CCCCn1cc[n+](C)c1 [1-butyl-3-methylimidazolium lactate]
40.1 ± 0.5 mN/m | 1105.25 ± 8 kg/m3 | 39.7 ± 0.5 mN/m | 1102.19 ± 8 kg/m3 | 39.1 ± 0.4 mN/m | 1095.87 ± 8 kg/m3 | 38.7 ± 0.4 mN/m | 1089.66 ± 8 kg/m3 | 38.3 ± 0.4 mN/m | 1083.46 ± 8 kg/m3 | 37.8 ± 0.4 mN/m | 1077.22 ± 8 kg/m3 | CCCC[n+]1ccn(C)c1.O=C([O-])c1ccccc1 [3-butyl-1-methylimidazolium benzoate]
